Measurements published in patent US10538554B2, “Peptides and uses therefor as antiviral agents” (priority 2015, dated 2020).
Bridge positions count the residues as written; N and C are the ends. Square brackets hold non-standard residues; d marks the D form. Peptide text beside a SMILES is read from it.

tested on: H3N2 A/HK/8/1968; conditions: A/HK/8/1968, 48 h, 500 μM

In the case of `C[C@H](O)[C@H]1NC(=O)[C@H](N)CSSC[C@H](C(=O)O)NC(=O)[C@@H](CC(N)=O)NC(=O)[C@@H](CS)NC(=O)[C@@H](Cc2ccccc2)NC(=O)[C@@H](CCCNC(=N)N)NC(=O)[C@@H](CO)NC(=O)[C@@H](CCCCN)NC1=O` [PSP 2, H-ctksrfcnc-OH] (H-[dC][dT][dK][dS][dR][dF][dC][dN][dC]-OH; disulfide 1-9), the “% inhibition H3N2” value was 18.5%.

tested on: H1N1 A1/Malaysia/302/1954; conditions: A1/Malaysia/302/1954, 48 h, 500 μM

`C[C@H](O)[C@H]1NC(=O)[C@H](N)CSSC[C@H](C(=O)O)NC(=O)[C@@H](CC(N)=O)NC(=O)[C@@H](CS)NC(=O)[C@@H](Cc2ccccc2)NC(=O)[C@@H](CCCNC(=N)N)NC(=O)[C@@H](CO)NC(=O)[C@@H](CCCCN)NC1=O` [PSP 2, H-ctksrfcnc-OH] (H-[dC][dT][dK][dS][dR][dF][dC][dN][dC]-OH; disulfide 1-9) was tested, and the “% inhibition H1N1” value was 67.6%.

tested on: H1N1 A/PR/8/1934; conditions: A/PR/8/1934, 48 h, 1 μM

Compared with `CC[C@@H](C)[C@H]1NC(=O)[C@@H](Cc2ccccc2)NC(=O)[C@@H]([C@H](C)O)NC(=O)[C@@H](Cc2ccccc2)NC(=O)[C@@H](Cc2c[nH]c3ccccc23)NC(=O)[C@@H](Cc2c[nH]c3ccccc23)NC(=O)[C@H](NC(=O)[C@H](CCCCN)NC(=O)[C@H](CCCCN)NC(=O)[C@H](CCCNC(=N)N)NC(=O)[C@@H](N)CCCNC(=N)N)CSSC[C@H](C(=O)O)NC(=O)[C@@H](Cc2ccccc2)NC1=O` [PSP VI A5, H-RRKKcwwftfifc-OH] (H-RRKK[dC][dW][dW][dF][dT][dF][dI][dF][dC]-OH; disulfide 5-13), `CC[C@@H](C)[C@H]1NC(=O)[C@@H](Cc2ccccc2)NC(=O)[C@@H]([C@H](C)O)NC(=O)[C@@H](Cc2ccccc2)NC(=O)[C@@H](Cc2c[nH]c3ccccc23)NC(=O)[C@@H](Cc2c[nH]c3ccccc23)NC(=O)[C@H](NC(=O)[C@H](CCCCN)NC(=O)[C@H](CCCCN)NC(=O)[C@H](CCCNC(=N)N)NC(=O)[C@@H](N)CCCNC(=N)N)CSSC[C@H](C(=O)O)NC(=O)[C@@H](Cc2ccc(O)cc2)NC1=O` [PSP VI A20, H-RRKKcwwftfiyc-OH] (H-RRKK[dC][dW][dW][dF][dT][dF][dI][dY][dC]-OH; disulfide 5-13) is lower in “% Inhibition” value: 60% for the first, 53% for the second.

Compared with `CC[C@@H](C)[C@H]1NC(=O)[C@@H](Cc2ccccc2)NC(=O)[C@@H]([C@H](C)O)NC(=O)[C@@H](Cc2ccccc2)NC(=O)[C@@H](Cc2c[nH]c3ccccc23)NC(=O)[C@@H](Cc2c[nH]c3ccccc23)NC(=O)[C@H](NC(=O)[C@H](CCCCN)NC(=O)[C@H](CCCCN)NC(=O)[C@H](CCCNC(=N)N)NC(=O)[C@@H](N)CCCNC(=N)N)CSSC[C@H](C(=O)O)NC(=O)CNC1=O` [PSP VI A6, H RRKKcwwftfiGc-OH] (H-RRKK[dC][dW][dW][dF][dT][dF][dI]G[dC]-OH; disulfide 5-13), `CC[C@@H](C)[C@H]1NC(=O)[C@@H](Cc2ccccc2)NC(=O)[C@@H]([C@H](C)O)NC(=O)[C@@H](Cc2ccccc2)NC(=O)[C@@H](Cc2c[nH]c3ccccc23)NC(=O)[C@@H](Cc2c[nH]c3ccccc23)NC(=O)[C@H](NC(=O)[C@H](CCCCN)NC(=O)[C@H](CCCCN)NC(=O)[C@H](CCCNC(=N)N)NC(=O)[C@@H](N)CCCNC(=N)N)CSSC[C@H](C(=O)O)NC(=O)[C@@H](CO)NC1=O` [PSP VI A16, H-RRKKcwwftfisc-OH] (H-RRKK[dC][dW][dW][dF][dT][dF][dI][dS][dC]-OH; disulfide 5-13) is higher in “% Inhibition” value: 69% for the first, 74% for the second.

Going from `CC[C@@H](C)[C@H]1NC(=O)[C@@H](Cc2ccccc2)NC(=O)[C@@H]([C@H](C)O)NC(=O)[C@@H](Cc2ccccc2)NC(=O)[C@@H](Cc2c[nH]c3ccccc23)NC(=O)[C@@H](Cc2c[nH]c3ccccc23)NC(=O)[C@H](NC(=O)[C@H](CCCCN)NC(=O)[C@H](CCCCN)NC(=O)[C@H](CCCNC(=N)N)NC(=O)[C@@H](N)CCCNC(=N)N)CSSC[C@H](C(=O)O)NC(=O)[C@@H](Cc2c[nH]cn2)NC1=O` [PSP VI A7, H-RRKKcwwftfihc-OH] (H-RRKK[dC][dW][dW][dF][dT][dF][dI][dH][dC]-OH; disulfide 5-13) to `CC[C@@H](C)[C@H]1NC(=O)[C@@H](Cc2ccccc2)NC(=O)[C@@H]([C@H](C)O)NC(=O)[C@@H](Cc2ccccc2)NC(=O)[C@@H](Cc2c[nH]c3ccccc23)NC(=O)[C@@H](Cc2c[nH]c3ccccc23)NC(=O)[C@H](NC(=O)[C@H](CCCCN)NC(=O)[C@H](CCCCN)NC(=O)[C@H](CCCNC(=N)N)NC(=O)[C@@H](N)CCCNC(=N)N)CSSC[C@H](C(=O)O)NC(=O)[C@@H](CC(C)C)NC1=O` [PSP VI A10, H-RRKKcwwftfilc-OH] (H-RRKK[dC][dW][dW][dF][dT][dF][dI][dL][dC]-OH; disulfide 5-13), the “% Inhibition” value rises from 38.5% to 48%.

Compared with `CC[C@@H](C)[C@H]1NC(=O)[C@@H](Cc2ccccc2)NC(=O)[C@@H]([C@H](C)O)NC(=O)[C@@H](Cc2ccccc2)NC(=O)[C@@H](Cc2c[nH]c3ccccc23)NC(=O)[C@@H](Cc2c[nH]c3ccccc23)NC(=O)[C@H](NC(=O)[C@H](CCCCN)NC(=O)[C@H](CCCCN)NC(=O)[C@H](CCCNC(=N)N)NC(=O)[C@@H](N)CCCNC(=N)N)CSSC[C@H](C(=O)O)NC(=O)[C@@H]([C@H](C)CC)NC1=O` [PSP VI A8, H-RRKKcwwftfiic-OH] (H-RRKK[dC][dW][dW][dF][dT][dF][dI][dI][dC]-OH; disulfide 5-13), `CC[C@@H](C)[C@H]1NC(=O)[C@@H](Cc2ccccc2)NC(=O)[C@@H]([C@H](C)O)NC(=O)[C@@H](Cc2ccccc2)NC(=O)[C@@H](Cc2c[nH]c3ccccc23)NC(=O)[C@@H](Cc2c[nH]c3ccccc23)NC(=O)[C@H](NC(=O)[C@H](CCCCN)NC(=O)[C@H](CCCCN)NC(=O)[C@H](CCCNC(=N)N)NC(=O)[C@@H](N)CCCNC(=N)N)CSSC[C@H](C(=O)O)NC(=O)[C@@H](C(C)C)NC1=O` [PSP VI A18, H-RRKKcwwftfivc-OH] (H-RRKK[dC][dW][dW][dF][dT][dF][dI][dV][dC]-OH; disulfide 5-13) is higher in “% Inhibition” value: 49% for the first, 53% for the second.

First: CC[C@@H](C)[C@H]1NC(=O)[C@@H](Cc2ccccc2)NC(=O)[C@@H]([C@H](C)O)NC(=O)[C@@H](Cc2ccccc2)NC(=O)[C@@H](Cc2c[nH]c3ccccc23)NC(=O)[C@@H](Cc2c[nH]c3ccccc23)NC(=O)[C@H](NC(=O)[C@H](CCCCN)NC(=O)[C@H](CCCCN)NC(=O)[C@H](CCCNC(=N)N)NC(=O)[C@@H](N)CCCNC(=N)N)CSSC[C@H](C(=O)O)NC(=O)[C@@H](CCCCN)NC1=O [PSP VI A9, H-RRKKcwwftfikc-OH] (H-RRKK[dC][dW][dW][dF][dT][dF][dI][dK][dC]-OH; disulfide 5-13)
Second: CC[C@@H](C)[C@H]1NC(=O)[C@@H](Cc2ccccc2)NC(=O)[C@@H]([C@H](C)O)NC(=O)[C@@H](Cc2ccccc2)NC(=O)[C@@H](Cc2c[nH]c3ccccc23)NC(=O)[C@@H](Cc2c[nH]c3ccccc23)NC(=O)[C@H](NC(=O)[C@H](CCCCN)NC(=O)[C@H](CCCCN)NC(=O)[C@H](CCCNC(=N)N)NC(=O)[C@@H](N)CCCNC(=N)N)CSSC[C@H](C(=O)O)NC(=O)[C@@H](CCCNC(=N)N)NC1=O [PSP VI A15, H-RRKKcwwftfirc-OH] (H-RRKK[dC][dW][dW][dF][dT][dF][dI][dR][dC]-OH; disulfide 5-13)
The “% Inhibition” value of the first is lower: 11% for the first, 92% for the second.

First: CC[C@@H](C)[C@H]1NC(=O)[C@@H](Cc2ccccc2)NC(=O)[C@@H]([C@H](C)O)NC(=O)[C@@H](Cc2ccccc2)NC(=O)[C@@H](Cc2c[nH]c3ccccc23)NC(=O)[C@@H](Cc2c[nH]c3ccccc23)NC(=O)[C@H](NC(=O)[C@H](CCCCN)NC(=O)[C@H](CCCCN)NC(=O)[C@H](CCCNC(=N)N)NC(=O)[C@@H](N)CCCNC(=N)N)CSSC[C@H](C(=O)O)NC(=O)[C@@H](CCSC)NC1=O [PSP VI A11, H-RRKKcwwftfimc-OH] (H-RRKK[dC][dW][dW][dF][dT][dF][dI][dM][dC]-OH; disulfide 5-13)
Second: CC[C@@H](C)[C@H]1NC(=O)[C@@H](Cc2ccccc2)NC(=O)[C@@H]([C@H](C)O)NC(=O)[C@@H](Cc2ccccc2)NC(=O)[C@@H](Cc2c[nH]c3ccccc23)NC(=O)[C@@H](Cc2c[nH]c3ccccc23)NC(=O)[C@H](NC(=O)[C@H](CCCCN)NC(=O)[C@H](CCCCN)NC(=O)[C@H](CCCNC(=N)N)NC(=O)[C@@H](N)CCCNC(=N)N)CSSC[C@H](C(=O)O)NC(=O)[C@@H](CCC(N)=O)NC1=O [PSP VI A14, H-RRKKcwwftfiqc-OH] (H-RRKK[dC][dW][dW][dF][dT][dF][dI][dQ][dC]-OH; disulfide 5-13)
The “% Inhibition” value of the first is lower: 79% for the first, 85% for the second.

Compared with `CC[C@@H](C)[C@H]1NC(=O)[C@@H](Cc2ccccc2)NC(=O)[C@@H]([C@H](C)O)NC(=O)[C@@H](Cc2ccccc2)NC(=O)[C@@H](Cc2c[nH]c3ccccc23)NC(=O)[C@@H](Cc2c[nH]c3ccccc23)NC(=O)[C@H](NC(=O)[C@H](CCCCN)NC(=O)[C@H](CCCCN)NC(=O)[C@H](CCCNC(=N)N)NC(=O)[C@@H](N)CCCNC(=N)N)CSSC[C@H](C(=O)O)NC(=O)[C@H]2CCCN2C1=O` [PSP VI A13, H-RRKKcwwftfipc-OH] (H-RRKK[dC][dW][dW][dF][dT][dF][dI][dP][dC]-OH; disulfide 5-13), `CC[C@@H](C)[C@H]1NC(=O)[C@@H](Cc2ccccc2)NC(=O)[C@@H]([C@H](C)O)NC(=O)[C@@H](Cc2ccccc2)NC(=O)[C@@H](Cc2c[nH]c3ccccc23)NC(=O)[C@@H](Cc2c[nH]c3ccccc23)NC(=O)[C@H](NC(=O)[C@H](CCCCN)NC(=O)[C@H](CCCCN)NC(=O)[C@H](CCCNC(=N)N)NC(=O)[C@@H](N)CCCNC(=N)N)CSSC[C@H](C(=O)O)NC(=O)[C@@H]([C@H](C)O)NC1=O` [PSP VI A17, H-RRKKcwwftfitc-OH] (H-RRKK[dC][dW][dW][dF][dT][dF][dI][dT][dC]-OH; disulfide 5-13) is lower in “% Inhibition” value: 42% for the first, 27% for the second.

`CC[C@@H](C)[C@H]1NC(=O)[C@@H](Cc2ccccc2)NC(=O)[C@@H]([C@H](C)O)NC(=O)[C@@H](Cc2ccccc2)NC(=O)[C@@H](Cc2c[nH]c3ccccc23)NC(=O)[C@@H](Cc2c[nH]c3ccccc23)NC(=O)[C@H](NC(=O)[C@H](CCCCN)NC(=O)[C@H](CCCCN)NC(=O)[C@H](CCCNC(=N)N)NC(=O)[C@@H](N)CCCNC(=N)N)CSSC[C@H](C(=O)O)NC(=O)[C@@H](Cc2c[nH]c3ccccc23)NC1=O` [PSP VI A19, H-RRKKcwwftfiwc-OH] (H-RRKK[dC][dW][dW][dF][dT][dF][dI][dW][dC]-OH; disulfide 5-13) was tested, and the “% Inhibition” value was 78%.

tested on: H3N8 A/Miami/2/63; conditions: A/Miami/2/63, 48 h, 500 μM

With `C[C@H](O)[C@H]1NC(=O)[C@H](N)CSSC[C@H](C(=O)O)NC(=O)[C@@H](CC(N)=O)NC(=O)[C@@H](CS)NC(=O)[C@@H](Cc2ccccc2)NC(=O)[C@@H](CCCNC(=N)N)NC(=O)[C@@H](CO)NC(=O)[C@@H](CCCCN)NC1=O` [PSP 2, H-ctksrfcnc-OH] (H-[dC][dT][dK][dS][dR][dF][dC][dN][dC]-OH; disulfide 1-9) the “% inhibition H3N8” value was 65%.
